According to PMC11063903, “Engineering a human P2X2 receptor with altered ligand selectivity in yeast” (The Journal of Biological Chemistry, 2024):

How the values were obtained:
Type in all cases: cell-based
P2X2 F301W+A304W = target: T1, P2X2 F301W+A304W (Homo sapiens, UniProt Q9UBL9, A304W/F301W); experiment: Fast GCaMP-mScarletI assay in yeast, P2X2 F301W+A304W; conditions: for Bottom, best fit value / Hillslope, best fit value / Top, best fit value: four-parameter logistic fit of ΔF/ΔT
T1 construct: expressed in transfected cells; host or cells: S. cerevisiae BY4741 background
T1 sequence (Q9UBL9 1-471 F301W/A304W): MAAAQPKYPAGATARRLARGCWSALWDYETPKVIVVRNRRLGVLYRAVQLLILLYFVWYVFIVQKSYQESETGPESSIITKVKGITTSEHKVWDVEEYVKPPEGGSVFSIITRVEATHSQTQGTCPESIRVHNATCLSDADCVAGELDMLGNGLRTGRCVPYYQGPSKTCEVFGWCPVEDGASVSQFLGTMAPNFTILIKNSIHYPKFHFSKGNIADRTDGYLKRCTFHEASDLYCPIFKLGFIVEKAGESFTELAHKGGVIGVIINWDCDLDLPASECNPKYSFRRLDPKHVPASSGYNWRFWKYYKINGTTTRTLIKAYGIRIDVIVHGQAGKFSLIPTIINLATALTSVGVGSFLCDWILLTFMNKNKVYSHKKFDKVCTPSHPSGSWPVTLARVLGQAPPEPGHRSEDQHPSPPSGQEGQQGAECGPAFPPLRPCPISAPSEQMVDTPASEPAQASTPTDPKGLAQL
Experimental: Figure 4 Unnatural-ligand gating in LBD libraries.A, WT P2X2 was tested with 1 mM ATP, 500 μM AMP-PNP, and compared to ATP with the broken receptor (K81C K83C) control with 1 mM ATP in the fast GCaMP-mScarletI assay (n = 3). […] B, heat map summarizing AMP-PNP signaling (ΔF/ΔT, fast GCaMP-mScarletI assay) in the site-saturation libraries (n = 2–3). All values are normalized to WT P2X2 with saturating amounts of AMP-PNP (500 μM) and therefore represent low signal (ΔF/ΔT) compared to the ATP ligand. C, F301W, F303Y, and A304W were combinatorially combined and tested against the WT, K81C K83C broken P2X2, and the single mutant clones with both ATP (1 mM, black) and AMP-PNP (500 μM, pink). […] Values here represent signal onset and are not normalized to a positive control (n = 2–5). D–K, dose response of each P2X variant with both ATP (black) and AMP-PNP (pink) in the fast GCaMP-mScarletI assay (n = 3). Statistics were performed via one-way ANOVA with Dunnett’s multiple comparisons with to the “broken” K81C K83C negative control. ∗ represents a p value ≤0.05, ∗∗ is p ≤ 0.01, and ∗∗∗ is p ≤ 0.001.
The combined mutations were synergistic, with F303Y + A304W having a predicted additive effect of ca. Ten-fold, relative to the 73-fold seen.
GCaMP assays were performed as follows. P2X2 GCaMP strains were designed with a bi-cistronic reporter, in which the GCaMP protein was followed by a 2A peptide and a mScarletI reporter ([53]). The co-translated mScarletI was designed to act as a control for plasmid loss, GCaMP breakage via nonsense mutation, and contamination. […] P2X2-GCaMP strains were cultured and induced as previously described. Samples were induced for 24 h to allow for the accumulation of the mature GCaMP protein. Cells were washed three times in 0.1 M MES/Tris buffer and resuspended with MES/Tris with supplemental calcium. Cells were loaded onto a black, clear bottom microplate and imaged on a FlexStation3 plate reader. Samples were imaged in “flex” mode. Samples were imaged for 48 s at an interval of 1.6 s. Fluorescence was measured with an excitation at 485 nm, and emission 525 nm. At the 21 s mark, 100 μl ligand solution was transferred to the cells. For strains with mScarlet, fluorescence was read with excitation 570 nm/emission 610 nm. Slopes were calculated from the last 6 points of measurement and were normalized to the positive control samples. Any replicate in which the mScarlet value was measured to be over 2 standard deviations less than the mean for that set was discarded from further analysis.
For multiple comparisons in the site-saturation screening data, One-way ANOVA with Dunnett’s multiple comparisons test was performed where every sample was compared to the “broken” negative control. Significance was plotted where ∗ represents a p value ≤0.05, ∗∗ is p ≤0.01, and ∗∗∗ is p ≤0.001. Dose–response curves were fit with nonlinear regression software using a four-parameter logistic curve. All statistics were calculated and plotted in Graphpad Prism software.

P2X2 F303I = target: T2, P2X2 F303I (Homo sapiens, UniProt Q9UBL9, F303I); experiment: Site-saturation screen of ligand-binding domain with ATP, F303I; conditions: 500 μM ATP, ± sd
T2 construct: expressed in transfected cells; host or cells: S. cerevisiae BY4741 background
T2 sequence (Q9UBL9 whole entry F303I, the tested form may be a part): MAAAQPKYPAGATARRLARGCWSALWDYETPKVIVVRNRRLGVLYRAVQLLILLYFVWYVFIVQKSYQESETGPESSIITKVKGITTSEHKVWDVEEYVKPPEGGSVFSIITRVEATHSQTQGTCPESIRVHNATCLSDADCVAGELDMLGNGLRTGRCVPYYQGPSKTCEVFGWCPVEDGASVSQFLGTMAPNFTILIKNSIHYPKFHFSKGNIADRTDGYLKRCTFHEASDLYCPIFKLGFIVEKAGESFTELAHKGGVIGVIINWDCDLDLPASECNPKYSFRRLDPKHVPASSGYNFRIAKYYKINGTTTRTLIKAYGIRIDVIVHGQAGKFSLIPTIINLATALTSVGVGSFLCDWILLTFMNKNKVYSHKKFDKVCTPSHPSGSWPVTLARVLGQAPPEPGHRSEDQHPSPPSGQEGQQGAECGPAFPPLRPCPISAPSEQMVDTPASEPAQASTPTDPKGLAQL
From the text: (§1) The yeast P2X2 screening platform poses an opportunity to probe the structure-function of the ligand-binding domain in detail. The conserved P2X “NFR” motif at residues 300 to 302 is directly involved in bonding to the ATP triphosphate moiety ([41]), so we mutagenized residues at or near this motif (298–304), ultimately covering 133 variants (7 sites, 19 residues each). […] We compared our results to phylogenetic data based on a multiple sequence alignment (MSA) from a curated set of 419 related P2X homologs (Figs. 3B, and S5; Table S1).
(§2) Figure 3 Structure-function analysis of the ligand binding domain.A, heat map summarizing the screening data of ATP with seven site-saturation libraries surrounding the NFR-motif. B, sequence-logo plot of the mutagenized residues and percent identity scores as determined from MSA. C, homology model of P2X2 colored by sequence conservation as calculated from a multiple sequence alignment of 419 related P2X genes. Conservation is scored on a log scale where maroon is more conserved and blue is less conserved. D, ATP in the ligand-binding pocket of P2X2. […]
(§3) GCaMP assays were performed as follows. […] Cells were loaded onto a black, clear bottom microplate and imaged on a FlexStation3 plate reader. […] Fluorescence was measured with an excitation at 485 nm, and emission 525 nm. […] For strains with mScarlet, fluorescence was read with excitation 570 nm/emission 610 nm. […]

[1] = target: T3, P2X2 R302 glutamine (R302Q) (Homo sapiens, UniProt Q9UBL9, R302Q); experiment: Site-saturation screen of ligand-binding domain with ATP, R302 glutamine; conditions: 500 μM ATP, ± sd
T3 construct: expressed in transfected cells; host or cells: S. cerevisiae BY4741 background
T3 sequence (Q9UBL9 whole entry R302Q, the tested form may be a part): as the sequence (Q9UBL9 whole entry F303I, the tested form may be a part) above, with R302Q, I303F counted along it
From the text: as §1, §2, §3

improvement compared to the WT channel (rate of signal onset ΔF/ΔT) (P2X2 F301W+A304W; at 500 μM AMP-PNP) [fold] | Structure (SMILES) | Bottom, best fit value (P2X2 F301W+A304W; n = 3) | Hillslope, best fit value (P2X2 F301W+A304W; n = 3) | Top, best fit value (P2X2 F301W+A304W; n = 3) | EC50 (P2X2 F301W+A304W; four-parameter logistic fit, n = 3, unit inferred, unit M, read-out: EC50, best fit value) [µM] | signal, % of WT signaling (P2X2 F303I) [%] | signal, % of WT signaling [1] [%]
24 | Nc1ncnc2c1ncn2[C@@H]1O[C@H](COP(=O)(O)OP(=O)(O)NP(=O)(O)O)[C@@H](O)[C@H]1O [AMP-PNP] | -0.492 | 1.649 | 81.84 | – | – | –
– | Nc1ncnc2c1ncn2[C@@H]1O[C@H](COP(=O)(O)OP(=O)(O)OP(=O)(O)O)[C@@H](O)[C@H]1O [ATP] | -5.28 | 1.07 | 207.50 | 20.7 | 90 ± 42 | 25 ± 28
